Source: US20230255972A1, “PYRIMIDINE COMPOUND-CONTAINING COMBINATION TO BE USED IN TUMOR TREATMENT” (TAIHO PHARMACEUTICAL CO., LTD., priority 2020, published 2023)
Where two headings read alike, the source gives them in different places.

Experiments:
EGFR [d746-750/T790M] = target: T1, EGFR [d746-750/T790M] (Homo sapiens, UniProt P00533, DEL746-750/T790M); test: Phosphorylation activity inhibitory effect (in vitro) on mutant EGFR d746-750/T790M; format: biochemical
T1 construct: purchased Carna Biosciences, Inc
T1 sequence (P00533 with tags, fused parts or gaps DEL746-750/T790M): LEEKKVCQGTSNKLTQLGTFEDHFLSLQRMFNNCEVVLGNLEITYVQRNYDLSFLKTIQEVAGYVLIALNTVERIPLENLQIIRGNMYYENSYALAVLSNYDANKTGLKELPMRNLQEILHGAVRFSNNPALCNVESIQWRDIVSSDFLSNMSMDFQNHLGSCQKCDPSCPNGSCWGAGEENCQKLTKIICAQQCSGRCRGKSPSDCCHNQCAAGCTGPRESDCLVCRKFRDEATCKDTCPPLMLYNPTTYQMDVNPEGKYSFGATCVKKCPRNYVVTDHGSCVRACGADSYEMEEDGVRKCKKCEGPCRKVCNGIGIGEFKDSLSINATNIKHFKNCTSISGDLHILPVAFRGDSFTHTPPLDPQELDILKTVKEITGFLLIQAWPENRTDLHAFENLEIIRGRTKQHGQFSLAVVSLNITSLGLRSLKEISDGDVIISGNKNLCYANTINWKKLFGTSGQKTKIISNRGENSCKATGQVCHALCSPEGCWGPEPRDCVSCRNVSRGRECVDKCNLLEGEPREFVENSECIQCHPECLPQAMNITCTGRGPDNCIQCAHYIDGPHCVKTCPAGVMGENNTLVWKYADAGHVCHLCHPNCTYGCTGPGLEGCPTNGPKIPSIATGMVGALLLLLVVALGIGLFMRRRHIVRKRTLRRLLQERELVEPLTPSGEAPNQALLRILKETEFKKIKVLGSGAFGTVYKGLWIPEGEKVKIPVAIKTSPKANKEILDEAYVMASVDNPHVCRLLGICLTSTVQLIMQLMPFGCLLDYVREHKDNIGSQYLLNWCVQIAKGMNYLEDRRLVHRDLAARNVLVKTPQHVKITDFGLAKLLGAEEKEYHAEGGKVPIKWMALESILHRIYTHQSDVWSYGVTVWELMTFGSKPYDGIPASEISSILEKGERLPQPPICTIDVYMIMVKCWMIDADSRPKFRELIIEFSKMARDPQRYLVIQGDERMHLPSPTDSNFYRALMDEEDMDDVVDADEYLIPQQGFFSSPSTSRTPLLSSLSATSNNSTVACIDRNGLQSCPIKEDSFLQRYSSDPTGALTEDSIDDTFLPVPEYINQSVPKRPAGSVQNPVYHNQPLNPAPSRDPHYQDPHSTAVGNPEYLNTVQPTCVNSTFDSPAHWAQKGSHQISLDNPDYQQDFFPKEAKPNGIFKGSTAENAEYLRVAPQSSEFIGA
Procedure: (§1) Test Example 6 Measurement of Phosphorylation Activity Inhibitory Effect (In Vitro) on Wild-Type and Mutant EGFR
(§2) The measurement of the in vitro inhibitory activity of a compound against wild-type and mutant EGFR was outsourced to Carna Biosciences, Inc. (Kinase Profiling Book, https://www.carnabio.com/japanese/product/search.cgi?mode=profiling).
(§3) Specifically, first, the pyrimidine compound of the present invention was diluted stepwise with dimethyl sulfoxide (DMSO). […] To the reaction solution, Termination Buffer was added, so as to terminate the kinase reaction. Finally, using LabChip™ EZ Reader II (PerkinElmer), an unphosphorylated substrate peptide (S) and a phosphorylated peptide (P) were separated and detected according to microchannel capillary electrophoresis.
(§4) As the pyrimidine compound of the present invention, the compound of Example 11 (Example compound 11) was used.

[1] = system: Human stomach cancer-derived tumor cells 4-1ST; settings: for BWC (%, Mean ± SE) / T/C (%) / TV (mm^3, mean ± SE): Day 15; for BWC (%, Mean ± SE) / T/C (%) / TV (mm^3, mean ± SE) / Number of Death / cCR (%) / pCR (%): Days 1-14, po; for cCR (%): clinical CR (TV=0); for pCR (%): pathological CR
Procedure: Tumor was removed approximately 1 month after subcutaneous transplantation and passage in a 6 week old male nude mouse (BALB/cAJc1-nu/nu, CLEA Japan, Inc.), and a fragment of approximately 2 mm square was prepared. A transplantation needle was filled with one fragment and subcutaneously inserted from around the right last rib of each nude mouse so as to enter the right back. The tumor was pushed out by pressing the inner syringe and thereby transplanted. For the measurement of the tumor size, electronic calipers were used. […] A tumor volume (TV) was calculated from this major axis and minor axis. A relative tumor volume change percentage (T/C) was calculated from the calculated tumor volume. TV and T/C were calculated according to the following equations:
(§5) Tumor Volume (TV)(mm^3)=(Major axis,mm)×(Minor axis,mm)×(Minor axis,mm)/2
(§6) Relative tumor volume change percentage (T/C)(%)=(Mean TV of the administration group)/(Mean TV of a control group)×100
(§7) For the measurement of the body weight, an animal electronic balance was used. A body weight change percentage on the n^th day (BWCn) from the body weight on 0th day (BW0) and the body weight on the n^th day (BWn) was calculated according to the following equation:
(§8) Body weight change percentage BWCn (%)=(BWn−BW0)/BW0×100
Nude mice having TV of 100 to 300 mm^3 were selected and assigned to groups each involving 6 animals by the equal number method [MiSTAT (ver. 2.0)] such that the means of TV were equal among the groups. […] An untreated group was used as a control.
(§9) The presence or absence of a combinatorial effect and toxicity was judged from the tumor sizes and the body weights on the grouping day (Day 0) and the judgement day (Day 15). During the administration period, the body weight was measured every day for calculation of the amount of the dosing solution.
When an individual of TV=0 was found, a complete response (hereinafter, CR) rate was also set as an evaluation item. For the judgement of CR, clinical CR (cCR) based on TV=0 and pathological CR (pCR) based on pathological test were used.
CR rate=(The number of CR individuals in a group found to have CR)/(Total number of individuals in the group found to have CR)×100

EGFR [D770_N771insNPG] = target: T2, EGFR [D770_N771insNPG] (Homo sapiens, UniProt P00533, INS770NPG); test: Phosphorylation activity inhibitory effect (in vitro) on mutant EGFR D770_N771insNPG; format: biochemical
T2 construct: purchased Carna Biosciences, Inc
T2 sequence (P00533 with tags, fused parts or gaps INS770NPG limits assumed): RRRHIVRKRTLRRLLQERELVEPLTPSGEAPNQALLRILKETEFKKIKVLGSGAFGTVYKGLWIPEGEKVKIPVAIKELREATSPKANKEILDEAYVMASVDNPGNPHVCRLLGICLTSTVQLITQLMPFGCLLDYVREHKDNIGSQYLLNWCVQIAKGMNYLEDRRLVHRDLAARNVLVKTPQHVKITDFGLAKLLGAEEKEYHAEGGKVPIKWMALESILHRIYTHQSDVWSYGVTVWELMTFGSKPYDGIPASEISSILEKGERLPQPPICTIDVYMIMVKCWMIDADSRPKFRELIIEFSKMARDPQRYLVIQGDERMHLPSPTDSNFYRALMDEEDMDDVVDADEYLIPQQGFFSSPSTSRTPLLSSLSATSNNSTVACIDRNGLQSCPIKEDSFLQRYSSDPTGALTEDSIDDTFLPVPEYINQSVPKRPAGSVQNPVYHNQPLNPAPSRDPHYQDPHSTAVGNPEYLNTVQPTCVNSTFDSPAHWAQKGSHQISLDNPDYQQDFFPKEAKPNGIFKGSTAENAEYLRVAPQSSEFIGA
Procedure: as §1, §2, §3, §4

[2] = system: Human stomach cancer-derived tumor cells 4-1ST
Procedure: (§10) Human stomach cancer-derived tumor cells 4-1ST were obtained as fragment tumor from the Central Institute for Experimental Animals. Tumor was removed approximately 1 month after subcutaneous transplantation and passage in a 6 week old male nude mouse (BALB/cAJc1-nu/nu, CLEA Japan, Inc.), and a fragment of approximately 2 mm square was prepared. A transplantation needle was filled with one fragment and subcutaneously inserted from around the right last rib of each nude mouse so as to enter the right back. The tumor was pushed out by pressing the inner syringe and thereby transplanted. For the measurement of the tumor size, electronic calipers were used. […] A tumor volume (TV) was calculated from this major axis and minor axis. A relative tumor volume change percentage (T/C) was calculated from the calculated tumor volume. TV and T/C were calculated according to the following equations:
as §5, §6, §7, §8
(§11) Nude mice having TV of 50 to 300 mm^3 were selected and assigned to groups each involving 6 animals by the equal number method [MiSTAT (ver. 2.1)] such that the means of TV were equal among the groups. […] An untreated group was used as a control.
as §9
An untreated group was used as a control.

[3] = system: human stomach cancer cell line NCI-N87; test: Combination (in vivo) of pyrimidine compound and capecitabine, NCI-N87 subcutaneous model
Procedure: Test Example 18 Combination (In Vivo) of Pyrimidine Compound and Capecitabine
A human stomach cancer cell line NCI-N87 was obtained from American Type Culture Collection (ATCC). The cell line was cultured in RPMI-1640 (containing 4.5 g/L glucose, 10 mM HEPES and 1 mM sodium pyruvate) (FUJIFILM Wako Pure Chemical Corporation) medium containing 10% fetal bovine serum (FBS) in a 5% CO2 incubator at 37° C.
The NCI-N87 cells were resuspended at a concentration of 8×10^7 cells/mL in PBS.
An aqueous solution containing 0.1 N HCl and 0.5% HPMC was used as a control.

SK-BR-3 cells = test: Growth inhibitory activity against HER2 expressing cell line SK-BR-3; format: cell-based; settings: Homo sapiens, SK-BR-3, 72 h; 3 days, CellTiter-Glo 2.0
Procedure: Test Example 3 Measurement of Growth Inhibitory Activity Against HER2 Expressing Cell Line
SK-BR-3 cells as a HER2 overexpressing human breast cancer cell line were suspended in a McCoy's 5a medium (manufactured by Life Technologies) supplemented with 10% fetal bovine serum. The cell suspension was seeded in each well of a 384-well flat-bottom microplate, and was then cultured in a 5% carbon dioxide gas-containing culture vessel at 37° C. for 1 day. Thereafter, the compound of the present invention was dissolved in DMSO, and the pyrimidine compound was diluted to 500 times the final concentration in DMSO. The compound in the DMSO solution was diluted with DMSO solution or the medium used in the suspension of the cells, and the obtained solution was then added to each well of the culture plate so that the final concentration of DMSO was 0.2%. The obtained mixture was further cultured in the 5% carbon dioxide gas-containing culture vessel at 37° C. for 3 days. After completion of the culture for 3 days in the presence of the compound, the cells were counted using CellTiter-Glo 2.0 (manufactured by Promega), and the growth inhibition percentage was then calculated according to the following equation.
Growth inhibitory percentage (%)=(C−T)/(C)×100 […]

[4] = system: Human stomach cancer-derived tumor cells 4-1ST; settings: for BWC (%, Mean ± SE) / T/C (%) / TV (mm^3, mean ± SE): Day 15; for BWC (%, Mean ± SE) / T/C (%) / TV (mm^3, mean ± SE) / Number of Deaths: Days 1-14, po
Procedure: as §10, §5, §6, §7, §8, §11, §9

[5] = Day 15, Example 11 6.25 mg/kg/day, Days 1-14, po
[6] = day 15, Example 11 6.25 mg/kg/day, day 1-14, p.o.

SMILES: C=CC(=O)N1C[C@H](n2c(C#CC3CC3)c(C(=O)N[C@H](C)c3ccccc3)c3c(N)ncnc32)C[C@@H]1C [Example 11, 7-((3R,5S)-1-acryloyl-5-methylpyrrolidin-3-yl)-4-amino-6-(cyclopropylethynyl)-N—((R)-1-phenylethyl)-7H-pyrrolo[2,3-d]pyrimidine-5-carboxamide]
- IC50 (EGFR [d746-750/T790M]): 6.8 nM
- BWC (%, Mean ± SE) ([1]; Example 11 6.25 mg/kg/day): 5.93 ± 0.25%
- T/C (%) ([1]; Example 11 6.25 mg/kg/day): 17.3%
- TV (mm^3, mean ± SE) ([1]; Example 11 6.25 mg/kg/day): 295.9 ± 67.3 mm^3
- BWC (%, Mean ± SE) ([1]; Example 11 12.5 mg/kg/day): 4.77 ± 1.14%
- T/C (%) ([1]; Example 11 12.5 mg/kg/day): 1.9%
- TV (mm^3, mean ± SE) ([1]; Example 11 12.5 mg/kg/day): 31.9 ± 10.7 mm^3
- Number of Death ([1]; Example 11 6.25 mg/kg/day): 0
- Number of Death ([1]; Example 11 12.5 mg/kg/day): 0
- TV on Day 15 versus control group (Dunnett's test) ([1]; T-mab and P-mab iv Day 1, Example 11 po Days 1-14): significantly lower TV
- cCR (%) ([1]; Example 11 6.25 mg/kg/day): 0%
- cCR (%) ([1]; Example 11 12.5 mg/kg/day): 33%
- pCR (%) ([1]; Example 11 6.25 mg/kg/day): 0%
- pCR (%) ([1]; Example 11 12.5 mg/kg/day): 33%
- IC50 (EGFR [D770_N771insNPG]): 0.55 nM
- BWC (%, Mean ± SE) [2, 5]: 4.0 ± 0.7%
- T/C (%) [2, 5]: 14.5%
- TV (mm^3, mean ± SE) [2, 5]: 233.6 ± 42.6 mm^3
- Number of Death ([2]; Example 11 6.25 mg/kg/day, Days 1-14, po): 0
- TV on Day 15 versus control group (Dunnett's test) ([2]; trastuzumab emtansine iv Day 1, Example 11 po Days 1-14): significantly lower TV
- Number of Death ([3]; Example 11 6.25 mg/kg/day, day 1-14, p.o.): 0
- TV on Day 15 versus control group (Dunnett's test) ([3]; capecitabine and Example 11 po once a day, Days 1-14): significantly lower TV
- T/C (%) [3, 6]: 47%
- Tumor volume (mm^3) day 15 Mean ± S.E. [3, 6]: 272.43 ± 22.22 mm^3
- BWC (%) Mean ± S.E. ([3]; mouse, in vivo, po, 6.25 mg/kg/day): 6.3 ± 0.9%
- IC50 (SK-BR-3 cells): 6.6 nM
- BWC (%, Mean ± SE) ([4]; Example 11 6.25 mg/kg/day): 3.69 ± 0.75%
- T/C (%) ([4]; Example 11 6.25 mg/kg/day): 22.0%
- TV (mm^3, mean ± SE) ([4]; Example 11 6.25 mg/kg/day): 448.7 ± 79.0 mm^3
- BWC (%, Mean ± SE) ([4]; Example 11 12.5 mg/kg/day): 3.79 ± 1.07%
- T/C (%) ([4]; Example 11 12.5 mg/kg/day): 3.0%
- TV (mm^3, mean ± SE) ([4]; Example 11 12.5 mg/kg/day): 62.0 ± 6.9 mm^3
- Number of Deaths ([4]; Example 11 6.25 mg/kg/day): 0
- Number of Deaths ([4]; Example 11 12.5 mg/kg/day): 0
- TV on Day 15 versus control group (Dunnett's test) ([4]; trastuzumab iv Days 1 and 8 (except for the 20 mg/kg/day group), Example 11 po Days 1-14): significantly lower TV
